Laboratory results from PMC6514978, “Synthesis, Antibacterial Activities, Mode of Action and Acute Toxicity Studies of New Oxazolidinone-Fluoroquinolone Hybrids” (Molecules, 2019).
≈ marks a conversion by molar mass, not a printed value.

How the values were obtained:
MRSA (13B262) = assay: MIC, broth microdilution (CLSI), clinical isolate; assay type: cell-based; conditions: Staphylococcus aureus
From the text: (§1) 6 standard strains and 3 clinical isolates were used to the preliminary evaluation of in vitro antibacterial activities of oxazolidinone-fluoroquinolone hybrids. For the further evaluation of hybrids OBP-4 and OBP-5, 263 clinical isolates including S. aureus (46), S. haemolyticus(32), S. epidermidis (10), E. faecalis (72), E. faecium (47), S. pneumoniae (13), H. parasuis (34), S. suis (9), and 8 resistant strains including MRSA, MRSE, CIP-resistant S. aureus and S. haemolyticus, VAN and quinolone-resistant S. pneumoniae, LZD-resistant E. faecalis, LZD/VAN and quinolone-resistant E. faecium were collected and tested.
(§2) Susceptibility testing of oxazolidinone-fluoroquinolone hybrids against various bacteria was performed by the broth microdilution method as outlined by the Clinical and Laboratory Standards Institute (CLSI). Three types of media, including cation-adjusted Mueller Hinton broth, Haemophilus Test Medium and cation-adjusted Mueller Hinton broth that contained 3%–5% lysed horse blood, were used to culture the corresponding bacteria. All compounds including comparator drugs were dissolved in an appropriate solvent at a concentration of 2.048 mg/mL and then serially diluted two-fold to provide the required concentrations. A final inoculum of 5 × 10^5 CFU/mL was used and plates were read after incubation for 16–24 h at 35 °C. […] Standard quality control strains (ATCC) were included throughout. Each determination was repeated in triplicate.

[1] = tested on: S. agalactiae^R (13B317), levofloxacin-resistant S. agalactiae; assay: MIC, broth microdilution (CLSI), clinical isolate; assay type: cell-based; conditions: Streptococcus agalactiae; levofloxacin-resistant S. agalactiae (13B317)
From the text: as §1, §2

VRE (13B330) = assay: MIC, broth microdilution (CLSI), clinical isolate; assay type: cell-based, vancomycin-resistant enterococcus; conditions: Enterococcus
From the text: as §1, §2

E. coli (ATCC25922) = assay: MIC, broth microdilution (CLSI), standard strain; assay type: cell-based; conditions: Escherichia coli; E. coli (ATCC25922); read-out: MIC
From the text: as §1, §2

E. faecalis (ATCC29212) = assay: MIC, broth microdilution (CLSI), standard strain; assay type: cell-based; conditions: Enterococcus faecalis; E. faecalis (ATCC29212); read-out: MIC
From the text: as §1, §2

[2] = tested on: H. influenzae (ATCC49247); assay: MIC, broth microdilution (CLSI), standard strain; assay type: cell-based; conditions: Haemophilus influenzae
From the text: as §1, §2

[3] = tested on: P. Aeruginosa (ATCC27853); assay: MIC, broth microdilution (CLSI), standard strain; assay type: cell-based; conditions: Pseudomonas aeruginosa; P. Aeruginosa (ATCC27853); read-out: MIC
From the text: as §1, §2

S. aureus (ATCC29213) = assay: MIC, broth microdilution (CLSI), standard strain; assay type: cell-based; conditions: Staphylococcus aureus
From the text: as §1, §2

[4] = tested on: S. pneumoniae (ATCC49619); assay: MIC, broth microdilution (CLSI), standard strain; assay type: cell-based; conditions: Streptococcus pneumoniae
From the text: as §1, §2

| MIC (MRSA (13B262)) [µg/mL] | MIC [1] [µg/mL] | MIC (VRE (13B330)) [µg/mL] | MIC (E. coli (ATCC25922)) [µg/mL] | MIC (E. faecalis (ATCC29212)) [µg/mL] | MIC [2] [µg/mL] | MIC [3] [µg/mL] | MIC (S. aureus (ATCC29213)) [µg/mL] | MIC [4] [µg/mL] | Compound |
| --- | --- | --- | --- | --- | --- | --- | --- | --- | --- |
| 1 (≈ 1.66 µM) | 0.25 (≈ 0.416 µM) | 1 (≈ 1.66 µM) | 4 (≈ 6.65 µM) | 1 (≈ 1.66 µM) | 0.5 (≈ 0.831 µM) | 64 (≈ 106 µM) | 0.25 (≈ 0.416 µM) | 0.25 (≈ 0.416 µM) | C[C@H]1COc2c(N3CCC(O)(COc4ccc(N5C[C@H](CO)OC5=O)cc4F)CC3)c(F)cc3c(=O)c(C(=O)O)cn1c23 [OBP-2] |
| 2 (≈ 3.24 µM) | 0.5 (≈ 0.811 µM) | 2 (≈ 3.24 µM) | 64 (≈ 104 µM) | 1 (≈ 1.62 µM) | 2 (≈ 3.24 µM) | 128 (≈ 208 µM) | 2 (≈ 3.24 µM) | 0.5 (≈ 0.811 µM) | C[C@H]1COc2c(N3CCC(O)(COc4ccc(N5C[C@H](CO)OC5=O)cc4F)CC3)c(F)c(N)c3c(=O)c(C(=O)O)cn1c23 [OBP-3] |
